Test results: PMC6862080, “Blood Compatibility—An Important but Often Forgotten Aspect of the Characterization of Antimicrobial Peptides for Clinical Application” (International Journal of Molecular Sciences, 2019)

What was measured:
platelets = test: SEM imaging of platelet morphology in PRP; assay type: cell-based, human; settings: 128 μg/mL, 2 h, 37 °C
Protocol: Since it was observed that some AMPs are able to activate the plasmatic coagulation system of heparinized and citrate anticoagulated blood, the influence of this peptides on platelets was investigated. For this purpose, fresh heparinized and citrated blood were collected from three donors. The blood was centrifuged at 500 g for 5 min and platelet rich plasma (PRP) was obtained. The PRP was incubated at 37 °C for 2 h with 128 μg/mL AMP, PMB, and LL-37. PRP without any additives served as the control. After incubation, the platelet number was determined by a Sysmex Automated Hematology Analyzer KX-21-N (Kobe, Japan). In addition, the PRP samples were prepared for SEM to visualize the morphology of the thrombocytes. After incubation, 10 μL PRP were diluted with 990 μL PBS (0.01 M) and filtered through a 0.2 μm membrane (Membrane Filter Isopore 0.2 μm, Merck, Darmstadt, Germany). The platelets were retained on the membrane, washed with 1 mL PBS, and fixed with 1 mL glutaraldehyde solution (2.5% glutaraldehyde in physiological saline solution). After an incubation time of 60 min, the samples were dehydrated using a series of ethanol (30%, 50%, 60%, 70%, 80%, 90%, and 100%). Afterwards the samples were dried overnight at RT, sputtered with gold and visualized with a scanning electron microscope (FLEXSem 1000, Hitachi, Japan).

LPS from E. coli = test: Endotoxin inactivation in human serum, chromogenic LAL test (E. coli LPS); assay type: biochemical; settings: 500 ng/mL peptide, 5 ng/mL LPS, n = 3
Protocol: (§1) The LPS neutralization study in serum was conducted using a chromogenic Limulus Amebocyte Lysate (LAL) test (Charles River Laboratories, MA, USA). The LAL test is the most established method for quantifying LPS. This method uses amebocyte lysate from Limulus polyphemus, wherein the presence of LPS triggers a defense mechanism that induces coagulation. The LAL test is used successfully for detection of LPS in a wide variety of industrial, pharmaceutical, and research applications, such as water supplies, parenteral fluids, drugs for intravenous administration, and certain biologic fluids (e.g., cerebrospinal fluid). Therefore, serum, which was obtained from freshly drawn blood, was spiked with 500 ng/mL AMPs, PMB or LL-37 before adding 5 ng/mL LPS from E. coli or P. aeruginosa. As positive and negative controls, native serum with and without LPS was used, respectively. Endotoxin activity was measured using the LAL assay according to the manufacturer’s specifications.

[1] = tested on: LPS-stimulated leukocytes; settings: whole blood, PMB serum level between 100 to 200 ng; cited from earlier work
Protocol: Past studies have shown that a PMB serum level between 100 to 200 ng reduces the cytokine secretion of LPS-stimulated leukocytes up to 90% in whole blood. PMB directly interacts with the conserved lipid A region of the LPS molecule. […] In this study, it was tested whether the lactoferrin based peptides are able to form a complex with LPS similar to PMB, which would lead to a reduction of the inflammatory effect of LPS. The results (Figure 3) indicate that in c ...

erythrocyte membranes [2] = test: Hemolysis in whole blood (Kahn method); assay type: cell-based, human; settings: citrate anticoagulated whole blood, 60 min 37 °C, Kahn method, n = 3, control 3.7 ± 1.9
E. coli (ATCC 11303) = test: microbe, parasite or virus in culture; assay type: cell-based; settings: DIN 58940-8, Müller-Hinton broth, overnight 37 °C, turbidity 620 nm
LPS from P. aeruginosa = test: Endotoxin inactivation in human serum, chromogenic LAL test (P. aeruginosa LPS); assay type: biochemical; settings: 500 ng/mL peptide, 5 ng/mL LPS, n = 3
Protocol: as §1

plasmatic coagulation [3] = test: Clotting batch test in citrate plasma; assay type: biochemical, human; settings: citrate plasma, 37 °C, 60 min, turbidity 600 nm, fibrinogen and D-Dimer; note: key: −: no clotting observed, no D-dimers and normal fibrinogen level; +: clotting observed, high D-dimer level, no detectable fibrinogen serum level
Protocol: Since the acylated LF11-322 peptides cause plasmatic coagulation of citrate anticoagulated plasma, separate clotting experiments were performed with this peptide group. The aim was to check whether the coagulation activation is dependent on the AMP concentration and on the acyl chain length. […] Plasma without additives served as the negative control, whereas plasma spiked with CaCl2/MgCl2 (500/250 mM) solution to restore the physiological calcium and magnesium level in plasma was used as the positive control. Incubation was performed at 37 °C for 60 min. […] In order to ensure that the measured turbidity of the plasma is caused by fibrin formation, the fibrinogen and D-Dimer concentrations were additionally determined. During plasmatic clotting, the fibrinogen level decreases and the D-Dimer level in serum increases. Both were analyzed on a Sysmex CA560 with the corresponding reagents (Siemens Healthineers, Erlangen, Germany).

S. aureus (ATCC 12600) = test: microbe, parasite or virus in culture; assay type: cell-based; settings: DIN 58940-8, Müller-Hinton broth, overnight 37 °C, turbidity 620 nm
E. coli and S. aureus = test: Scanning electron microscopy of bacterial cell wall damage; assay type: cell-based; settings: 128 μg/mL, overnight culture at 37 °C, 2 × 10^5–8 × 10^5 CFU/mL
Protocol: In order to verify and to visualize the impact of AMPs on the bacterial membrane, electron microscopy was conducted. Therefore, bacterial suspensions of E. coli and S. aureus with a concentration of 2 × 10^5–8 × 10^5 CFU/mL were incubated with 128 μg/mL of one AMP (LF11-322-C8) and PMB in a microplate over night at 37 °C. After overnight culture, the bacteria were prepared for SEM. To achieve this, the bacteria suspensions were filtered through a sterile filter (Swinnex filter holders, Merck Millipore, Burlington, MA, USA). The filters with the collected bacteria were than washed with PBS (10 mM, pH 7.2) and fixed with a 2.5% glutaraldehyde solution (Carl Roth, Karlsruhe, Deutschland). The fixed specimens were gradually dehydrated by increasing ethanol solutions (10% to 100%) and sputtered with gold (Q150R ES Sputter Coater, Quorum Technologies Ltd., East Sussex, UK) prior to examination with a scanning electron microscope (FlexSEM 1000, Hitachi, Tokyo, Japan).

plasmatic coagulation [4] = test: Activation of the clotting cascade in citrated plasma; settings: citrated (17 mM) plasma, 128 μg/mL, 37 °C, 120 min, turbidity at 600 nm
Protocol: (§2) Plasma spiked with MES buffer without AMP was used as the negative control. […] Samples were incubated at 37 °C for 120 min. Coagulation was determined by turbidity measurement at 600 nm using a well plate reader.

erythrocyte membranes [5] = test: Hemolysis in RBC suspended in PBS (Kahn method); assay type: cell-based, human; settings: 60 min 37 °C, Kahn method, n = 3, control 8.5 ± 4.7
plasmatic coagulation [6] = test: Activation of the clotting cascade in heparinized plasma; settings: heparinized (0.5 IU/mL) plasma, 128 μg/mL, 37 °C, 120 min, turbidity at 600 nm
Protocol: as §2

[7] = PBS pH 7.4, inoculum 2 × 10^5–8 × 10^5 CFU/mL

In the case of Polymyxin B [PMB, reference compound], the “Platelet morphology by SEM, citrate anticoagulated PRP (in words)” value (platelets) is listed as “morphologically intact platelets”, the “Reduction of endotoxin activity of E. coli LPS” value (LPS from E. coli) is listed as 63 ± 7% and the “Reduction of cytokine secretion of LPS-stimulated leukocytes” value [1] is listed as “up to 90%”. The “Free Hemoglobin, BLOOD, 8 μg/mL” value (erythrocyte membranes [2]; peptide conc. 8 μg/mL) was 3.5 ± 2.8 mg/dL, the “Free Hemoglobin, BLOOD, 32 μg/mL” value (erythrocyte membranes [2]; peptide conc. 32 μg/mL) was 3.7 ± 1.4 mg/dL and the “Free Hemoglobin, BLOOD, 128 μg/mL” value (erythrocyte membranes [2]; peptide conc. 128 μg/mL) was 2.6 ± 3.9 mg/dL. The “Minimal Inhibitory Concentration, E. coli, 4% HSA” value (E. coli (ATCC 11303); 4% human serum albumin) was 4 µg/mL, the “Minimal Inhibitory Concentration, E. coli, PBS + heparin” value (E. coli (ATCC 11303); PBS containing 5 IU/mL heparin) was 4 µg/mL and the “Minimal Inhibitory Concentration, E. coli, PBS” value (E. coli (ATCC 11303); [7]) was 2 µg/mL. The “Reduction of endotoxin activity of P. aeruginosa LPS” value (LPS from P. aeruginosa) was 74 ± 7%, the “Clotting of citrate plasma, Peptide Concentration 8 μg/mL” value (plasmatic coagulation [3]) was “−” and the “Clotting of citrate plasma, Peptide Concentration 32 μg/mL” value (plasmatic coagulation [3]) was “−”. For the same substance, the “Clotting of citrate plasma, Peptide Concentration 128 μg/mL” value (plasmatic coagulation [3]) was “−”, the “Clotting of citrate plasma, Peptide Concentration 256 μg/mL” value (plasmatic coagulation [3]) was “−” and the “Minimal Inhibitory Concentration, S. aureus, 4% HSA” value (S. aureus (ATCC 12600); 4% human serum albumin) was 64 µg/mL. For the same substance, the “Minimal Inhibitory Concentration, S. aureus, PBS + heparin” value (S. aureus (ATCC 12600); PBS containing 5 IU/mL heparin) was over 128 µg/mL, the “Minimal Inhibitory Concentration, S. aureus, PBS” value (S. aureus (ATCC 12600); [7]) was 8 µg/mL and the “Lysis of bacteria cells seen by SEM (in words)” value (E. coli and S. aureus) was “not able to lyse S. aureus cells”. The “Plasma clot, Citrated Plasma” value (plasmatic coagulation [4]) was “−”, the “Free Hemoglobin, RBC in PBS, 128 μg/mL” value (erythrocyte membranes [5]; blood cells suspended in PBS 10 mM pH 7.4, highest peptide conc.) was 1.9 ± 0.2 mg/dL and the “Free Hemoglobin, RBC in PBS, 8 μg/mL” value (erythrocyte membranes [5]; blood cells suspended in PBS 10 mM pH 7.4, peptide conc. 8 μg/mL) was 14.9 ± 3.1 mg/dL. The “Free Hemoglobin, RBC in PBS, 32 μg/mL” value (erythrocyte membranes [5]; blood cells suspended in PBS 10 mM pH 7.4, peptide conc. 32 μg/mL) was 18.9 ± 11.2 mg/dL and the “Plasma clot, Heparin Plasma” value (plasmatic coagulation [6]) was “−”.
